From patent publication US6828316B2, “Diamide compound and medicine containing the same” (Kowa Co., Ltd., priority 1996, dated 2004)
Where a name gives a salt, the structure may show the parent alone.

tested on: production of IgE antibody; test: Evaluation of inhibitory effect on production of IgE antibody; format: cell-based; conditions: B-cell; test agent at a concentration of 10^−5 M; mouse (Balb/C) spleen B cells cultured with LPS then mouse IL-4; IgE in culture supernatant by ELISA
Method: Evaluation of Inhibitory Effect on Production of IgE Antibody
A spleen was enucleated from a mouse (Balb/C, male, aged 8 weeks) and shredded in 0.3% BSA/HBSS to prepare single cells by means of a 200-mesh screen. Further, the single cells were hemolyzed by 0.75% ammonium chloride-17 mM Tris solution to prepare a splenocyte suspension (1×10^7/ml) using RPMI 1640 medium/25 mM HPES/0.3% BSA. After the suspension was reacted with a mouse anti-mouse Thy-1.2 monoclonal antibody at 4° C. for 1 hour, the reaction mixture was centrifuged, and the sediment cells were suspended again (1×10^7/ml, RPMI/HPES/BAS). After the suspension was then reacted with a low-cytotoxic rabbit complement (product of Cedarlane Co.) at 37° C. for 1 hour, killed cells were removed by specific gravity centrifugation using lympholyte M (product of Cedarlane Co.) to obtain a B cell fraction as viably cells.
After B cells (10^5/0.2 ml/well) were cultured for a day together with LPS (E. coli 026:B6, product of DIFCO Co.) using a 96-well plate, mouse IL-4 (product of Genzyme Co.) was added to conduct culture further for 7 days.
Each test agent was added on the first day of the culture, and the amount of IgE in a culture supernatant was measured by ELISA, thereby calculating out the inhibitory effect of the agent on the production of an IgE antibody.

| Structure (SMILES) | inhibition at 10 µM |
| --- | --- |
| O=C(/C=C/C=C/c1ccccc1)N1CCCN(C(=O)/C=C/C=C/c2ccccc2)CC1 [Example 1, 1,4-bis[5-phenylpenta-(2E,4E)-dienoyl]hexahydro-1,4-diazepine] | 100% |
| COc1cc(/C=C/C=C/C(=O)N2CCCN(C(=O)/C=C/C=C/c3cc(OC)c(OC)c(OC)c3)CC2)cc(OC)c1OC [Example 17, 1,4-bis[5-(3,4,5-trimethoxyphenyl)-penta-(2E,4E)-dienoyl]hexahydro-1,4-diazepine] | 100% |
| O=C(/C=C/C=C/c1ccccn1)N1CCCN(C(=O)/C=C/C=C/c2ccccn2)CC1 [Example 19, 1,4-bis[5-(2-pyridyl)penta-(2E,4E)-dienoyl]hexahydro-1,4-diazepine] | 20% |
| O=C(/C=C/C=C/c1cccc2cccnc12)N1CCCN(C(=O)/C=C/C=C/c2cccc3cccnc23)CC1 [Example 25, 1,4-bis[5-(8-quinolyl)penta-(2E,4E)-dienoyl]hexahydro-1,4-diazepine] | 100% |
| COc1cc(/C=C/C=C/C(=O)N2CCN(C(=O)/C=C/C=C/c3cc(OC)c(OC)c(OC)c3)CC2)cc(OC)c1OC [Example 29, 1,4-bis[5-(3,4,5-trimethoxyphenyl)-penta-(2E,4E)-dienoyl]piperazine] | 100% |
| O=C(/C=C/C=C/c1cccc2cccnc12)N1CCN(C(=O)/C=C/C=C/c2cccc3cccnc23)CC1 [Example 32, 1,4-bis[5-(8-quinolyl)penta-(2E,4E)-dienoyl]piperazine] | 85% |
| COc1cc(/C=C/C=C/C(=O)N2CCN(C(=O)/C=C/C=C/c3cc(OC)c(OC)c(OC)c3)C(C(=O)O)C2)cc(OC)c1OC (stereo not shown) [Example 34, 1,4-bis[5-(3,4,5-trimethoxyphenyl)-penta-(2E,4E)-dienoyl]piperazine-2-carboxylic acid] | 90% |
| COc1cc(/C=C/C=C/C(=O)N2CCN(C(=O)/C=C/C=C/c3cc(OC)c(OC)c(OC)c3)C(CN(C)C)C2)cc(OC)c1OC (stereo not shown) [Example 36, 1,4-bis[5-(3,4,5-trimethoxyphenyl)-penta-(2E,4E)-dienoyl]-2-(N,N-dimethylaminomethyl)-piperazine hydrochloride] | 100% |
| COc1cc(/C=C/C=C/C(=O)N2CCN(C(=O)/C=C/C=C/c3cc(OC)c(OC)c(OC)c3)c3ccccc32)cc(OC)c1OC [Example 41, 1,4-bis[5-(3,4,5-trimethoxyphenyl)-penta-(2E,4E)-dienoyl]-1,2,3,4-tetrahydroquinoxaline] | 100% |
| COc1cc(/C=C/C=C/C(=O)N2CCN(C(=O)/C=C/C=C/c3cc(OC)c(OC)c(OC)c3)c3ncccc32)cc(OC)c1OC [Example 42, 1,4-bis[5-(3,4,5-trimethoxyphenyl)-penta-(2E,4E)-dienoyl]-pyrido[2,3-b]-1,2,3,4-tetrahydropyrazine] | 95% |
